Test results reported in patent US20090270478A1, “ION CHANNEL MODULATING ACTIVITY II” (CARDIOME PHARMA CORP., priority 2000, published 2009).

Key:
[1] = target: human heart sodium channel (hH1) (Homo sapiens, UniProt Q14524); format: cell-based
hH1 sodium channel = target: T1, hH1 sodium channel (Homo sapiens, UniProt Q14524); experiment: Inactivated state inhibition of hH1 sodium channel current (prepulse protocol); format: cell-based
T1 construct: expressed in transfected cells

[2] = system: isolated rabbit Purkinje fibers; details: 100 μM lidocaine, 300 nM dofetilide

human heart sodium channel (hH1), sequence (Q14524 whole entry, looked up): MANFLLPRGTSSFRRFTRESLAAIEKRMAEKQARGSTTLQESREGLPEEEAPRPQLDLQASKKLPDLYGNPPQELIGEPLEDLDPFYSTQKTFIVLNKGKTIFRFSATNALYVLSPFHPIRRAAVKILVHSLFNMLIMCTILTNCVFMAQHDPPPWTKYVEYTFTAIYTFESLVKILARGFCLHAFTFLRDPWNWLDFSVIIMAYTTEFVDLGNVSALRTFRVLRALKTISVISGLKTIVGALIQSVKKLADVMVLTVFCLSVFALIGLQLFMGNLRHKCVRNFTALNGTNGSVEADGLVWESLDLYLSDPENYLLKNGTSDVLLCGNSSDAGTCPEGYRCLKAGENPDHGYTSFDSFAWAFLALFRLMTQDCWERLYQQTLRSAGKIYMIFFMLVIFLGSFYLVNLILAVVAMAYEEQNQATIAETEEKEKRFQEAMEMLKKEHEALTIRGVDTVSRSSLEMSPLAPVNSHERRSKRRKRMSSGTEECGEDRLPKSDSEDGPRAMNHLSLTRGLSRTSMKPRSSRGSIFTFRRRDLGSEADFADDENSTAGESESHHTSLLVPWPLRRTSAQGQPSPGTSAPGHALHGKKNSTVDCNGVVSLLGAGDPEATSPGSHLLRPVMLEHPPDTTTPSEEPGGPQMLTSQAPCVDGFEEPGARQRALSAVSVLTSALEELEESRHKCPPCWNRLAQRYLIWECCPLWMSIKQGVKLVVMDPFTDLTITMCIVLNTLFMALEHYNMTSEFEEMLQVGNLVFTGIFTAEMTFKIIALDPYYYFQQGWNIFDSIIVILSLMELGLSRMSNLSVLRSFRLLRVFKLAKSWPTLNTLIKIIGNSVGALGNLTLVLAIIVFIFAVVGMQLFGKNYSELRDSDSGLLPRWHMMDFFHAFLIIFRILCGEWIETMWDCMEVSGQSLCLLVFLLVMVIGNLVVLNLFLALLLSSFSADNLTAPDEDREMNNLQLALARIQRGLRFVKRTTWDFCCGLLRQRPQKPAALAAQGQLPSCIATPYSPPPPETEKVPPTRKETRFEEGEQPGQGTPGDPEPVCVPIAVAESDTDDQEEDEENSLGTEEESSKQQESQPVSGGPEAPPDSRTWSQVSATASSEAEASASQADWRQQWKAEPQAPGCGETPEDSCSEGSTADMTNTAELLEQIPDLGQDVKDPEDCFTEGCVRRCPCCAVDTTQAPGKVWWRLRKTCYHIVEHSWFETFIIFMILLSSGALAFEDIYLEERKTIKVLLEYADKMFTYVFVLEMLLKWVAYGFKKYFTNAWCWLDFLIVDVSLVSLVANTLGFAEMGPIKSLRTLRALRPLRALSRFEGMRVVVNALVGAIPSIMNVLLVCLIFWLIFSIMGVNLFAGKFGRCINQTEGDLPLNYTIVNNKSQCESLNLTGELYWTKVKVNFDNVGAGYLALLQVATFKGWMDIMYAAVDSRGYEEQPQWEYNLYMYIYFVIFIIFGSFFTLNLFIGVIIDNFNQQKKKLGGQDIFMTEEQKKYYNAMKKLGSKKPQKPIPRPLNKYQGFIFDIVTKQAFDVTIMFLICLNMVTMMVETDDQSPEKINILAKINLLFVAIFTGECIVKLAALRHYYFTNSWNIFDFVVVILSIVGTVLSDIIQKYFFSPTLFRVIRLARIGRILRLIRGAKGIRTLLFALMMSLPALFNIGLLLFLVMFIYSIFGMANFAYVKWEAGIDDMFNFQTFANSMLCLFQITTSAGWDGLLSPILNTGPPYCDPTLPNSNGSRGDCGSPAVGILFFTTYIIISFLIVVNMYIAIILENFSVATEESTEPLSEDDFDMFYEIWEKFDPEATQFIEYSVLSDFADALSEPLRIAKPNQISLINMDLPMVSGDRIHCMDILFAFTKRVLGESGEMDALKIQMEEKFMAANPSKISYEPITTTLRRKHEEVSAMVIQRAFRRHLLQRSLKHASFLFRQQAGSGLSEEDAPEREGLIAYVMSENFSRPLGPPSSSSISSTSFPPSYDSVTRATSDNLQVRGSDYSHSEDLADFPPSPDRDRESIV
T1 sequence (Q14524 whole entry): as the sequence (Q14524 whole entry, looked up) above

CCN(CC)CC(=O)Nc1c(C)cccc1C [lidocaine]
block of early TTX-sensitive sodium current, Iearly(TTX) [1]: 41±2.7%
block of late TTX-sensitive sodium current, Ilate(TTX) [1]: 73±2.8%
block of sustained TTX-sensitive sodium current, Isus(TTX) [1]: 70±2.5%
inhibition of hH1 with longer prepulses (inactivated state inhibition) (hH1 sodium channel): produced enhanced inhibition when prepulses of longer duration were applied
termination of dofetilide-induced EADs [2]: terminated dofetilide-induced (300 nM) EADs
